Target: Cyclic GMP-AMP synthase (Homo sapiens, UniProt Q8N884)
Assay: in vitro human biochemical cGAS inhibition

Chain of Cyclic GMP-AMP synthase (Q8N884 whole entry): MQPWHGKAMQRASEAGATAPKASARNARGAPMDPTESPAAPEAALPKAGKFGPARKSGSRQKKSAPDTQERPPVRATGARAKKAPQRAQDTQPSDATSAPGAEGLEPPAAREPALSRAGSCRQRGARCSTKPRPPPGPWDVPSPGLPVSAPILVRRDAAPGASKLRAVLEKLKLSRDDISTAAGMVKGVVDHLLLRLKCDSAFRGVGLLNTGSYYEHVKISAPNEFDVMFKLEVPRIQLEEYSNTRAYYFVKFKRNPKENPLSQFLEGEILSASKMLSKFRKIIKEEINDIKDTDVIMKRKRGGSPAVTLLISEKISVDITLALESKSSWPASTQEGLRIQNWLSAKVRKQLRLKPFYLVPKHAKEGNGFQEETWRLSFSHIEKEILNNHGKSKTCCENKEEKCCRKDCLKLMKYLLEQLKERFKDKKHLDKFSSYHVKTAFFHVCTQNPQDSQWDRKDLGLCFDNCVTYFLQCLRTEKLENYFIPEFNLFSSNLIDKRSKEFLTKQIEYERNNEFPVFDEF

IC50	SMILES
> 9.95 µM	COC(=O)[C@@H]1C[C@H](Oc2ncc(Cl)cc2[C@@]2(F)CCS(=O)(=O)C[C@@H]2C)CN1c1nc(C(F)F)nc2c1oc1ccccc12 [US12043625, Example P02 (prodrug of Ex. 1.13)]
0.027 µM	C[C@H]1CN2CC[C@]1(F)c1cc(Cl)cnc1O[C@H]1C[C@@H](C(=O)O)N(C1)c1nc(nc3c1oc1ccccc13)CCCCOC2=O [US20240189315, Example 35]

The remaining lines, values behind:

SMILES	IC50
COC(=O)[C@@H]1C[C@H](Oc2ncccc2N2CCOC3(COC3)[C@@H]2C)CN1c1nc(C(F)F)nc2c1oc1ccccc12 [US20240189315, Example P01 of PCT/EP2022/062480) (Prodrug of Ex. 4.04 of PCT/EP-2022/062480)]	> 9.96 µM
COC(=O)[C@@H]1C[C@H](Oc2ncc(Br)cc2N2CCOC3(COC3)[C@@H]2C)CN1c1nc(C(F)(F)F)nc2c1oc1ccccc12 [US20240189315, Example P02 of PCT/EP2022/062480) (Prodrug of Ex. 1.10 of PCT/EP2022/062480)]	> 9.95 µM
COC(=O)[C@@H]1C[C@H](Oc2ncc(-c3cccnc3OC)cc2N2CCOC3(COC3)[C@@H]2C)CN1c1nc(C(F)(F)F)nc2c1oc1ccccc12 [US20240189315, Example P04 of PCT/EP2022/062480) (Prodrug of Ex. 3.14 of PCT/EP2022/062480)]	> 9.95 µM

Reference: BindingDB's records for patent US20240189315 (Boehringer Ingelheim International, 2024)
